From US20130344026A1, “Dimeric Smac Mimetics” (priority 2009, published 2013)
Read-outs that look alike come from different tables or passages of the source. One block for each molecule: values may come before it.

Tested on: HCC461
Assay: cell viability assay in HCC461, compound alone
Assay type: cell-based
[1] = HCC461, HCC461 cells, compound alone, read-out: IC50 (uM) in cell viability assay in HCC461
[2] = HCC461, HCC461, Tables 15-18, read-out: IC50 (uM) in cell viability assay in HCC461
[3] = HCC461, HCC461, Tables 6-9, read-out: IC50 (μM) in cell viability assay in HCC461
[4] = HCC461 cells, compound alone, read-out: IC50 (uM) in cell viability assay in HCC461

Compound: CN[C@@H](C)C(=O)N[C@H](C(=O)N1C[C@@H](NC(=O)c2ccc(CNC(=O)CCC(=O)NCc3ccc(C(=O)N[C@H]4C[C@@H](C(=O)NC5CCCc6ccccc65)N(C(=O)[C@@H](NC(=O)[C@H](C)NC)C(C)(C)C)C4)cc3)cc2)C[C@H]1C(=O)NC1CCCc2ccccc21)C(C)(C)C (single isomer, unassigned) [Compound P3-70]
IC50 [1]: 0.06 µM

Compound: CN[C@@H](C)C(=O)N[C@H](C(=O)N[C@H]1C[C@@H](C(=O)N[C@@H]2CCCc3ccccc32)N(C(=O)[C@@H](NC(=O)[C@H](C)NC)C(C)(C)C)C1)C(C)(C)C [Compound 145]
IC50 [3]: > 30 µM

Compound: CN[C@@H](C)C(=O)N[C@H](C(=O)N1C[C@@H](NC(=O)c2cccc(C(=O)N[C@H]3C[C@@H](C(=O)NC4CCCC5CCCCC54)N(C(=O)[C@@H](NC(=O)[C@H](C)NC)C(C)(C)C)C3)c2)C[C@H]1C(=O)NC1CCCC2CCCCC21)C(C)(C)C (some centres unmarked) [Compound P3-58]
IC50 [4]: 0.211 µM

Compound: CN[C@@H](C)C(=O)N[C@H](C(=O)N1CCC[C@H]1C(=O)N[C@H](CNC(=O)C1CCCCC1C(=O)NC[C@@H](NC(=O)[C@@H]1CCCN1C(=O)[C@@H](NC(=O)[C@H](C)NC)C(C)(C)C)C1CCCCC1)C1CCCCC1)C(C)(C)C (single isomer, unassigned) [Compound P4-3]
IC50 (HCC461, Tables 15-18, read-out: IC50 (uM) in cell viability assay in HCC461): 0.03 µM

Compound: CN[C@@H](C)C(=O)N[C@H](C(=O)N1C[C@@H](NC(=O)c2cc(C(=O)N[C@H]3C[C@@H](C(=O)N[C@@H]4CCCc5ccccc54)N(C(=O)[C@@H](NC(=O)[C@H](C)NC)C(C)(C)C)C3)cc(N(S(C)(=O)=O)S(C)(=O)=O)c2)C[C@H]1C(=O)N[C@@H]1CCCc2ccccc21)C(C)(C)C [Compound P3-41]
IC50 [1]: 0.016 µM

Compound: CN[C@@H](C)C(=O)N[C@H](C(=O)N1CCC[C@H]1C(=O)N[C@@H]1CCCc2ccccc21)c1ccc(OCc2ccccc2COc2ccc([C@H](NC(=O)[C@H](C)NC)C(=O)N3CCC[C@H]3C(=O)N[C@@H]3CCCc4ccccc43)cc2)cc1 [Compound P2-3]
IC50 [2]: 0.072 µM

Compound: CN[C@@H](C)C(=O)N[C@H](C(=O)N1C[C@@H](NC(=O)c2cccc(C(=O)N[C@H]3C[C@@H](C(=O)NC4CCCC5CCCCC54)N(C(=O)[C@@H](NC(=O)[C@H](C)NC)C(C)(C)C)C3)c2)C[C@H]1C(=O)NC1CCCC2CCCCC21)C(C)(C)C (some centres unmarked) [Compound P3-60]
IC50 [4]: 0.311 µM

Compound: CN[C@@H](C)C(=O)N[C@H](C(=O)N1C[C@@H](NC(=O)C2CCCC(C(=O)N[C@H]3C[C@@H](C(=O)NC4CCCc5ccccc54)N(C(=O)[C@@H](NC(=O)[C@H](C)NC)C(C)(C)C)C3)C2)CC1C(=O)N[C@@H]1CCCc2ccccc21)C(C)(C)C (some centres unmarked) [Compound P3-27]
IC50 [4]: 0.031 µM

Compound: CN[C@@H](C)C(=O)N[C@H](C(=O)N1CCC[C@H]1C(=O)N[C@H](C(=O)NCCC#CC#CCCNC(=O)[C@@H](NC(=O)[C@@H]1CCCN1C(=O)[C@@H](NC(=O)[C@H](C)NC)C(C)(C)C)C1CCCCC1)C1CCCCC1)C(C)(C)C [Compound P4-1]
IC50 [2]: 0.08 µM

Compound: CN[C@@H](C)C(=O)N[C@H](C(=O)N1C[C@@H](NC(=O)c2cc(C(=O)N[C@H]3C[C@@H](C(=O)N[C@@H]4CCCc5ccccc54)N(C(=O)[C@@H](NC(=O)[C@H](C)NC)C(C)(C)C)C3)cc(C(C)(C)C)c2)C[C@H]1C(=O)N[C@@H]1CCCc2ccccc21)C(C)(C)C [Compound P3-23]
IC50 [1]: 0.007 µM

Compound: CN[C@@H](C)C(=O)NC(C(=O)N1C[C@@H](NC(=O)c2cc(NC(=O)OCc3ccc([N+](=O)[O-])cc3)cc(C(=O)N[C@H]3C[C@@H](C(=O)N[C@@H]4CCCc5ccccc54)N(C(=O)[C@@H](NC(=O)[C@H](C)NC)C(C)(C)C)C3)c2)CC1C(=O)N[C@@H]1CCCc2ccccc21)C(C)(C)C (some centres unmarked) [Compound 110]
IC50 [3]: 0.059 µM

Compound: CN[C@@H](C)C(=O)N[C@H](C(=O)N1CCC[C@H]1C(=O)N[C@H](CNC(=O)c1cc(N)cc(C(=O)NC[C@@H](NC(=O)[C@@H]2CCCN2C(=O)[C@@H](NC(=O)[C@H](C)NC)C(C)(C)C)c2ccccc2)c1)c1ccccc1)C(C)(C)C [Compound P4-13]
IC50 [2]: 0.089 µM

Compound: CN[C@@H](C)C(=O)NC(C(=O)N1C[C@@H](NC(=O)c2cccc(C(=O)NCCCC[C@H](NC(=O)C(NC(C)[C@H](C)NC)C(C)(C)C)C(=O)N3CCCCC3)c2)C[C@H]1C(=O)N[C@@H]1CCCc2ccccc21)C(C)(C)C (some centres unmarked) [Compound 152]
IC50 [3]: 0.447 µM

Compound: CN[C@@H](C)C(=O)N[C@@H](CCC(=O)N[C@H]1CC(C(=O)N[C@@H]2CCc3ccccc3C2)N(C(=O)[C@@H](NC(=O)[C@H](C)NC)C(C)(C)C)C1)C(=O)N[C@H](C(=O)N[C@@H](C)C(C)C)C(C)(C)C (some centres unmarked) [Compound 163]
IC50 (HCC461, Tables 6-9, read-out: IC50 (μM) in cell viability assay in HCC461): > 30 µM

Compound: CN[C@@H](C)C(=O)N[C@H](C(=O)N1C[C@@H](n2cc(-c3cccc(-c4cn([C@H]5C[C@@H](C(=O)N[C@H](C)c6ccccc6)N(C(=O)[C@@H](NC(=O)[C@H](C)NC)C(C)(C)C)C5)nn4)c3)nn2)C[C@H]1C(=O)N[C@H](C)c1ccccc1)C(C)(C)C [Compound P3-88]
IC50 [1]: 0.033 µM

Further lines, results first:

IC50 [1]: 0.044 µM
Compound: CN[C@@H](C)C(=O)N[C@H](C(=O)N1C[C@@H](NC(=O)c2cc(N)cc(C(=O)N[C@H]3C[C@@H](C(=O)N[C@H](C)c4ccccc4)N(C(=O)[C@@H](NC(=O)[C@H](C)NC)C(C)(C)C)C3)c2)C[C@H]1C(=O)N[C@H](C)c1ccccc1)C(C)(C)C [Compound P3-52]

IC50 [2]: 0.043 µM
Compound: CN[C@@H](C)C(=O)N[C@@H](COCCCCCCOC[C@H](NC(=O)[C@H](C)NC)C(=O)N1CCCC1C(=O)N[C@@H]1CCCc2ccccc21)C(=O)N1CCCC1C(=O)N[C@@H]1CCCc2ccccc21 (some centres unmarked) [Compound P2-20]

IC50 [2]: 0.18 µM
Compound: CN[C@@H](C)C(=O)N[C@H](C(=O)N1CCC[C@H]1Cn1nnnc1S(=O)(=O)c1ccc(C)cc1)[C@@H](C)OCC#CC#CCO[C@H](C)[C@H](NC(=O)[C@H](C)NC)C(=O)N1CCC[C@H]1Cn1nnnc1S(=O)(=O)c1ccc(C)cc1 [Compound P2-22]

IC50 [2]: 0.07 µM
Compound: CN[C@@H](C)C(=O)N[C@H](C(=O)N1CCC[C@H]1C(=O)NC1c2ccccc2-c2ccccc21)[C@@H](C)OCC#CC#CCO[C@H](C)[C@H](NC(=O)[C@H](C)NC)C(=O)N1CCC[C@H]1C(=O)NC1c2ccccc2-c2ccccc21 [Compound P2-15]

IC50 [1]: 0.014 µM
Compound: CN[C@@H](C)C(=O)N[C@H](C(=O)N1C[C@@H](NC(=O)c2cccc(C(=O)N[C@H]3C[C@@H](C(=O)N[C@H](C)c4ccccc4)N(C(=O)[C@@H](NC(=O)[C@H](C)NC)C4CCCCC4)C3)c2)C[C@H]1C(=O)N[C@H](C)c1ccccc1)C1CCCCC1 [Compound P3-77]

IC50 [2]: 0.03 µM
Compound: CN[C@@H](C)C(=O)N[C@H](C(=O)N1CCC[C@H]1C(=O)NC1c2ccccc2-c2ccccc21)[C@@H](C)OCCCCCCO[C@H](C)[C@H](NC(=O)[C@H](C)NC)C(=O)N1CCC[C@H]1C(=O)NC1c2ccccc2-c2ccccc21 [Compound P2-16]

IC50 [1]: 0.007 µM
Compound: CN[C@@H](C)C(=O)N[C@H](C(=O)N1C[C@@H](N2CC(CCCC3CN([C@H]4C[C@@H](C(=O)NC5c6ccccc6-c6ccccc65)N(C(=O)[C@@H](NC(=O)[C@H](C)NC)C(C)(C)C)C4)N=N3)N=N2)C[C@H]1C(=O)NC1c2ccccc2-c2ccccc21)C(C)(C)C (some centres unmarked) [Compound P3-6]

IC50 [3]: 0.467 µM
Compound: CCC[C@H](NC(=O)[C@H](C)NC)C(=O)N1C[C@@H](NC(=O)c2cccc(C(=O)N[C@H]3C[C@@H](C(=O)N[C@@H]4CCCc5ccccc54)N(C(=O)[C@@H](NC(=O)[C@H](C)NC)C(C)(C)C)C3)c2)C[C@H]1C(=O)N1CCCC1 [Compound 155]

IC50 [3]: 0.058 µM
Compound: CN[C@@H](C)C(=O)N[C@@H](CCCCNC(=O)c1cccc(C(=O)N[C@H]2C[C@@H](C(=O)N[C@@H]3CCCc4ccccc43)N(C(=O)[C@@H](NC(=O)[C@H](C)NC)C(C)(C)C)C2)c1)C(=O)N1CCC[C@H]1C(=O)N[C@@H]1CCCc2ccccc21 [Compound 134]

IC50 [3]: 0.043 µM
Compound: CN[C@@H](C)C(=O)N[C@@H](CCCCNC(=O)c1cccc(C(=O)N[C@H]2C[C@@H](C(=O)N[C@@H]3CCCc4ccccc43)N(C(=O)[C@@H](NC(=O)[C@H](C)NC)C(C)(C)C)C2)c1)C(=O)N1CC=C[C@H]1C(=O)N[C@@H]1CCCc2ccccc21 [Compound 144]

IC50 [1]: 0.013 µM
Compound: CN[C@@H](C)C(=O)N[C@H](C(=O)N1C[C@@H](NC(=O)c2cc(C(=O)N[C@H]3C[C@@H](C(=O)NC4CCCc5ccccc54)N(C(=O)[C@@H](NC(=O)[C@H](C)NC)C(C)(C)C)C3)ccc2Br)CC1C(=O)N[C@@H]1CCCc2ccccc21)C(C)(C)C (some centres unmarked) [Compound P3-30]

IC50 [1]: 0.081 µM
Compound: CN[C@@H](C)C(=O)N[C@H]1CC#CC#CC[C@H](NC(=O)[C@H](C)NC)C(C)N2C[C@H](C[C@H]2C(=O)N[C@@H]2CCCc3ccccc32)NC(=O)c2ccc(cc2)C(=O)N[C@H]2C[C@@H](C(=O)N[C@@H]3CCCc4ccccc43)N(C2)C1C (some centres unmarked) [Compound P3-8]

IC50 [3]: 0.404 µM
Compound: CN[C@@H](C)C(=O)N[C@@H](CC#CC#CC[C@H](NC(=O)[C@H](C)NC)C(=O)N1CCCC[C@H]1C(=O)N[C@@H]1CCCc2ccccc21)C(=O)N1CCCC[C@H]1C(=O)N[C@@H]1CCCc2ccccc21 [Compound 87]

IC50 [1]: 0.017 µM
Compound: CN[C@@H](C)C(=O)N[C@H](C(=O)N1C[C@@H](NC(=O)c2cccc(C(=O)N[C@H]3C[C@@H](C(=O)N[C@@H]4CCCc5ccccc54)N(C(=O)[C@@H](NC(=O)[C@H](C)NC)C(C)C)C3)c2)C[C@H]1C(=O)N[C@@H]1CCCc2ccccc21)C(C)C [Compound P3-55]

IC50 [2]: 0.098 µM
Compound: CN[C@@H](C)C(=O)NC(C(=O)N1CCC[C@H]1C(=O)NC1CCCc2ccccc21)c1ccc(-c2ccc(C(NC(=O)[C@H](C)NC)C(=O)N3CCC[C@H]3C(=O)NC3CCCc4ccccc43)cc2)cc1 (some centres unmarked) [Compound P2-2]

IC50 [3]: 27.6 µM
Compound: CN[C@@H](C)C(=O)NC(C(=O)N1C[C@@H](NC(=O)c2cccc(C(=O)N[C@H]3C[C@@H](C(=O)N[C@H](C)c4ccccc4)N(C(=O)[C@H](CCC(=O)OC)NC(=O)[C@@H](N)CO)C3)c2)CC1C(=O)N[C@@H]1CCCc2ccccc21)C(C)(C)C (some centres unmarked) [Compound 153]

IC50 [1]: 0.048 µM
Compound: CN[C@@H](C)C(=O)N[C@H](C(=O)N1C[C@@H](NC(=O)CNCC(=O)N[C@H]2C[C@@H](C(=O)N[C@@H]3CCCc4ccccc43)N(C(=O)[C@@H](NC(=O)[C@H](C)NC)C(C)(C)C)C2)C[C@H]1C(=O)N[C@@H]1CCCc2ccccc21)C(C)(C)C [Compound P3-35]
